# Measured values published in the supplement of paper PMC9938120.
# What was measured:
# Experiment in all cases: drug sensitivity score (DSS3, normalised partial AUC of % inhibition dose-response) (DSS (score)); higher = more sensitive (stronger inhibition of viability); extreme values may be limits of the assay
# FMOC06 = patient-derived mucinous ovarian cancer cells; conditions: 72 h; library: FO5A; assay format: 2D, 384-well, CellTiter-Glo
# Outline: (§1)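 The drug sensitivity score is calculated as a partial area under the percent-inhibition dose-response curve, divided by the log of the upper asymptote; higher scores mean more sensitive. For this score, early-passage (under 10) patient-derived ovarian cancer cells were exposed on 384-well flat clear-bottom plates to compounds at five concentrations across a 10,000-fold range for 72 h at 37 °C, 5% CO2. Viability was read with CellTiter-Glo and processed in Breeze.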
# FMOC03 = patient-derived mucinous ovarian cancer cells; conditions: 72 h; library: FO5A; assay format: 2D, 384-well, CellTiter-Glo
# Outline: as §1
# FMOC25_2 = patient-derived low-grade serous ovarian cancer cells; conditions: 72 h; library: FO5A; assay format: 2D, 384-well, CellTiter-Glo
# Outline: as §1
# FMOC02_3 = patient-derived low-grade serous ovarian cancer cells; conditions: 72 h; library: FO5A; assay format: 2D, 384-well, CellTiter-Glo
# Outline: as §1
# FMOC24 = patient-derived high-grade serous ovarian cancer cells; conditions: 72 h; library: FO5A; assay format: 2D, 384-well, CellTiter-Glo
# Outline: as §1
# FMOC14 = patient-derived high-grade serous ovarian cancer cells; conditions: 72 h; library: FO5A; assay format: 2D, 384-well, CellTiter-Glo
# Outline: as §1
# FMOC09 = patient-derived high-grade serous ovarian cancer cells; conditions: 72 h; library: FO5A; assay format: 2D, 384-well, CellTiter-Glo
# Outline: as §1
# FMOC02_2 = patient-derived low-grade serous ovarian cancer cells; conditions: 72 h; library: FO5A; assay format: 2D, 384-well, CellTiter-Glo
# Outline: as §1
# FMOC22 = patient-derived mucinous ovarian cancer cells; conditions: 72 h; library: FO5A; assay format: 2D, 384-well, CellTiter-Glo
# Outline: as §1
# FMOC25_1 = patient-derived low-grade serous ovarian cancer cells; conditions: 72 h; library: FO4B; assay format: 2D, 384-well, CellTiter-Glo
# Outline: as §1
SMILES,drug sensitivity score (FMOC06),drug sensitivity score (FMOC03),drug sensitivity score (FMOC25_2),drug sensitivity score (FMOC02_3),drug sensitivity score (FMOC24),drug sensitivity score (FMOC14),drug sensitivity score (FMOC09),drug sensitivity score (FMOC02_2),drug sensitivity score (FMOC22),drug sensitivity score (FMOC25_1)
O=C(O)c1ccc2c(c1)nc(Nc1cccc(Cl)c1)c1ccncc12 [Silmitasertib],6.9,7,5.2,6.3,2.55,4.9,4.5,4.1,6,3.6
CCS(=O)(=O)c1cccc(-c2cc(C(=O)NC3CCN(C)CC3)c(C)c3[nH]c4ncc(C)cc4c23)c1 [TAK-901],2,1.2,5.7,5.3,1.15,0,7,1,1.2,2.2
COc1cc(Nc2ncc(F)c(Nc3ccc4c(n3)NC(=O)C(C)(C)O4)n2)cc(OC)c1OC [Tamatinib],0,2.5,8.7,9.6,5.3,0,0.7,13,0,7.2
Cc1nc(-c2cn3c(n2)-c2ccc(-c4cnn(C(C)(C)C(N)=O)c4)cc2OCC3)n(C(C)C)n1 [Taselisib],9.6,4.5,8.6,12.2,0.85,4.3,10.1,12.7,2.9,8.2
CO[C@H]1C[C@@H]2CC[C@@H](C)[C@@](O)(O2)C(=O)C(=O)N2CCCC[C@H]2C(=O)O[C@H]([C@H](C)C[C@@H]2CC[C@@H](OC(=O)C(C)(CO)CO)[C@H](OC)C2)CC(=O)[C@H](C)/C=C(\C)[C@@H](O)[C@@H](OC)C(=O)[C@H](C)C[C@H](C)/C=C/C=C/C=C/1C [Temsirolimus],2.5,5.6,13.1,16.5,0.5,8.9,3.5,9.5,9.7,13.6
Nc1nc2[nH]cnc2c(=S)[nH]1 [Thioguanine],0,0,6.3,4.3,0.95,0,0,3.2,0,5.3
CC[C@@]1(O)C(=O)OCc2c1cc1n(c2=O)Cc2cc3c(CN(C)C)c(O)ccc3nc2-1 [Topotecan],8.2,8.1,16.8,15.3,7,9.4,8.4,9.7,15.6,12.7
CC(C)C[C@@H](C(=O)N[C@H](C(=O)OC1CCCC1)c1ccccc1)[C@H](O)C(=O)NO [Tosedostat],11.9,7.6,4.7,11,19.7,5.3,6.6,7.2,1.8,6.2
Cc1cc(Nc2cc(N3CCN(C)CC3)nc(Sc3ccc(NC(=O)C4CC4)cc3)n2)n[nH]1 [Tozasertib],3.5,2.2,3.6,5.7,0.65,0.6,4.7,5,2.9,2.6
CC(=O)Nc1cccc(-n2c(=O)n(C3CC3)c(=O)c3c(Nc4ccc(I)cc4F)n(C)c(=O)c(C)c32)c1 [Trametinib],15.9,16.6,12,14,0,0.9,9.9,15.1,11.6,12.4
CN[C@@H]1C[C@H]2O[C@@](C)([C@@H]1OC)n1c3ccccc3c3c4c(c5c6ccccc6n2c5c31)C(=O)N[C@H]4O [UCN-01],23.2,17.2,34.4,33.7,24.4,19.8,20.7,33.1,15.9,31
CC(C)Nc1cc(-c2c[nH]c(C(=O)N[C@H](CO)c3cccc(Cl)c3)c2)c(Cl)cn1 [Ulixertinib],11.4,10,10.6,13.1,0.05,0.6,6.7,10.6,7.5,12.3
Cn1ncc(Cl)c1-c1cc(C(=O)N[C@H](CN)Cc2ccc(F)c(F)c2)oc1Cl [Uprosertib],4.3,0,4.1,13.7,1.35,3.5,0,13.1,0.7,3.5
CNC(=O)c1ccccc1Nc1cc(Nc2ccc(N3CCOCC3)cc2OC)ncc1C(F)(F)F [VS-4718],9.6,4.2,12.6,13.8,3.2,0.7,11.5,12,6,6.1
CCCCC(=O)OCC(=O)[C@]1(O)Cc2c(O)c3c(c(O)c2[C@@H](O[C@H]2C[C@H](NC(=O)C(F)(F)F)[C@H](O)[C@H](C)O2)C1)C(=O)c1c(OC)cccc1C3=O [Valrubicin],6.5,5.3,9,9.2,7,5.1,7.1,6.8,7.8,9.1
C[C@@H]1COC(Nc2ccc3ncnc(Nc4ccc(OCc5nccs5)c(Cl)c4)c3c2)=N1 [Varlitinib],0.3,9,5.1,6.3,0.5,0.5,6.5,12.5,0.1,8.3
